Results: patent publication US6646005B1, “Method of treating hair loss using sulfonyl thyromimetic compounds” (The University of Texas Southwestern Medical Center, priority 1999, dated 2003)

Test system: male Sprague Dawley rats
Assay: Cardiotoxicity Assay (heart-to-body weight ratio)
Format: in vivo, rat
Settings: 250 μg per kg subcutaneously once daily for 28 days, hearts weighed day 30
Excerpt: The cardiotoxicity assay measures the potential of a test compound to adversely affect the cardiovascular system. As thyroid hormone (T3) damages the cardiovascular system, the heart enlarges. See, e.g., Gomberg-Maitland et al., “Thyroid hormone and Cardiovascular Disease”, American Heart Journal, Vol. 135(2), pp. 187-196 (1998); Klein and Ojamaa, “Thyroid Hormone and the Cardiovascular System”, Current Opinion in Endocrinology and Diabetes, Vol. 4, pp.341-346 (1997); and Klemperer et al., “Thyroid Hormone Therapy and Cardiovascular Disease”, Progress in Cardiovascular Diseases, Vol. 37 (4), pp. 329-336 (1996). This increases the weight of the heart relative to whole body weight. The cardiotoxicity assay herein below is used to test compounds for potentially adverse cardiac effects by measuring their effect on the heart-to-body weight ratio.
Two groups each of six male Sprague Dawley rats (Harlan Sprague Dawley, Inc., Indianapolis, Ind.) (each weighing from approximately 220 grams to 235 grams) are utilized. The first group is a vehicle control group and the second group is a test compound group. The length of the assay is 30 days, with treatment of vehicle or test compound in vehicle daily for 28 of those days as described below.
Prior to initiation of the assay, each rat is allowed to acclimate to standard environmental conditions for 5 days. […]

## N[C@@H](Cc1cc(I)c(Oc2cc(I)c(O)c(I)c2)c(I)c1)C(=O)O [T4, thyroxine]
  cardiac-sparing (index C = RT/RV, heart/body ratio of test compound group over vehicle control group): not cardiac-sparing
